Experimental data published in US5449661A, “Angiotensin converting enzyme inhibitor and method for preparing same” (The Calpis Food Industry Co., Ltd., priority 1992, dated 1995).
Residues, ends and D or L forms follow the SMILES beside them.

Each compound was assayed against T1, angiotensin converting enzyme (ACE) (Oryctolagus cuniculus, UniProt P12822) (assay: ACE inhibiting activity (method of Cushman and Cheung, Hip-His-Leu substrate)). Settings: read-out: IC50 (μM), ACE inhibiting activity of synthesized peptides; chemically synthesized peptides; measured in the same way as in Example 1.
T1 sequence (P12822 34-1310): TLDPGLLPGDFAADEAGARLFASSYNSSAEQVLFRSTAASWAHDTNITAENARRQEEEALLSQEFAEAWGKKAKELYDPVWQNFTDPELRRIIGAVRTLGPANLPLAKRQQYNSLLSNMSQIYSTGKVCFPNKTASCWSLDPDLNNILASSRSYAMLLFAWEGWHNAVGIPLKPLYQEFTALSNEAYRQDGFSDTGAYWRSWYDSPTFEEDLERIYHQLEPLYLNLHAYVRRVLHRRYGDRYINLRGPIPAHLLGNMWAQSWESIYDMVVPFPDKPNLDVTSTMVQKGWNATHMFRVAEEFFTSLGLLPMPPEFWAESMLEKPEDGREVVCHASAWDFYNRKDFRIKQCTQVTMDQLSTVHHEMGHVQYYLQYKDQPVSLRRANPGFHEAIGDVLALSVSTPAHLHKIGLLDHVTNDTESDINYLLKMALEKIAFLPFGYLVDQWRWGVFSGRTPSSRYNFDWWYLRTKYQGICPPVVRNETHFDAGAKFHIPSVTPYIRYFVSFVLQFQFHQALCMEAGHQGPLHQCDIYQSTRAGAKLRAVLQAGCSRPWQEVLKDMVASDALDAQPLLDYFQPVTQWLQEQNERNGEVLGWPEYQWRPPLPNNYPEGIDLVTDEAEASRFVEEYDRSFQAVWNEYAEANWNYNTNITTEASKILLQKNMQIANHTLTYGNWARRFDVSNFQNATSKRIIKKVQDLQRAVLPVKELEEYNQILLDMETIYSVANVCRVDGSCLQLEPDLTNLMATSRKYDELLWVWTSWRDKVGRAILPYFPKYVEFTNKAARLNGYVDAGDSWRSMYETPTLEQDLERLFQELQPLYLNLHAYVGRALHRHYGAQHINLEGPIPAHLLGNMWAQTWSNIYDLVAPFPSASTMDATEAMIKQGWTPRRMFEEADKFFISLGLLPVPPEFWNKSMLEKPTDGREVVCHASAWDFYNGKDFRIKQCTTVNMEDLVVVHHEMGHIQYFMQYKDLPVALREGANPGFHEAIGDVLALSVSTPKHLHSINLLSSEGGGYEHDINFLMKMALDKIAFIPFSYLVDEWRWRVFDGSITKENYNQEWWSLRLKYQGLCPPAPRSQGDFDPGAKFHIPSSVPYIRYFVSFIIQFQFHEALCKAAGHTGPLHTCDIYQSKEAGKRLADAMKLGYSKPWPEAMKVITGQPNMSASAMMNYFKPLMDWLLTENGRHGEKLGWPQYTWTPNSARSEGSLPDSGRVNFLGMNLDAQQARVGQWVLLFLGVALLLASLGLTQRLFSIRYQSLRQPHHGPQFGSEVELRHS
Protocol: 0.2 ml of hippuryl histidyl leucine (Hip-His-Leu, manufactured by SIGMA CHEMICAL CO.), adjusted to 5 mM with a 0.1M boric acid buffer containing 0.3M NaCl, pH 8.3, and 0.02 ml of an aqueous enzyme solution (ACE, 0.1 u/ml, manufactured by SIGMA CHEMICAL CO.) were added in this order as a substrate to the contents of each test tube, and reaction was carried out at 37° C. for 30 minutes. 0.25 ml of 1N hydrochloric acid was subsequently added to the contents of each test tube. After termination of the reaction, 1.7 ml of ethyl acetate was added to the contents of each tube, and agitation was continued for 20 seconds. After centrifugal separation at 3000 rpm for 10 minutes, and recovery of 1.4 ml of an ethyl acetate layer, the solvent was removed by heating at 120° for 40 minutes. After removing the solvent and adding 1 ml of distilled water, the absorption at 228 nm of the extracted hippuric acid was measured and adopted as the ACE inhibiting activity. The inhibiting ratio was calculated by the following equation:
Inhibiting Percentage=[(A-B)/(A-C)]×100(%)

IC50	SMILES
160 µM	CC(C)C[C@H](N)C(=O)N[C@H](C(=O)N[C@@H](CCC(N)=O)C(=O)N[C@H](C(=O)N1CCC[C@H]1C(=O)N[C@H](C(=O)N[C@H](C(=O)N[C@H](C(=O)N1CCC[C@H]1C(=O)N1CCC[C@H]1C(=O)O)C(C)C)C(C)C)C(C)C)[C@@H](C)O)[C@@H](C)O (H-LTQTPVVVPP-OH)
627 µM	CC(C)[C@H](NC(=O)[C@@H]1CCCN1C(=O)[C@H](C)N)C(=O)N1CCC[C@H]1C(=O)N1CCC[C@H]1C(=O)O [Ala--Pro--Val--Pro--Pro, Ala-Pro-Val-Pro-Pro] (H-APVPP-OH)
125 µM	CC(C)C[C@H](N)C(=O)N[C@H](C(=O)N1CCC[C@H]1C(=O)N1CCC[C@H]1C(=O)O)C(C)C [Leu--Val--Pro--Pro, Leu-Val-Pro-Pro] (H-LVPP-OH)
12 µM	CC(C)C[C@H](NC(=O)[C@@H](N)Cc1ccccc1)C(=O)N[C@H](C(=O)N1CCC[C@H]1C(=O)N1CCC[C@H]1C(=O)O)C(C)C [Phe--Leu--Val--Pro--Pro, Phe-Leu-Val-Pro-Pro] (H-FLVPP-OH)
181 µM	CC(C)[C@H](NC(=O)[C@@H]1CCCN1)C(=O)N1CCC[C@H]1C(=O)N1CCC[C@H]1C(=O)O [Pro--Val--Pro--Pro, Pro-Val-Pro-Pro] (H-PVPP-OH)
117 µM	CC(C)[C@H](NC(=O)[C@@H]1CCCN1)C(=O)N[C@H](C(=O)N[C@H](C(=O)N1CCC[C@H]1C(=O)N1CCC[C@H]1C(=O)O)C(C)C)C(C)C [Pro--Val--Val--Val--Pro--Pro, Pro-Val-Val-Val-Pro-Pro] (H-PVVVPP-OH)
285 µM	CC(C)[C@H](N)C(=O)N[C@H](C(=O)N1CCC[C@H]1C(=O)N1CCC[C@H]1C(=O)O)C(C)C [Val--Val--Pro--Pro, Val-Val-Pro-Pro] (H-VVPP-OH)
873 µM	CC(C)[C@H](N)C(=O)N[C@H](C(=O)N[C@H](C(=O)N1CCC[C@H]1C(=O)N1CCC[C@H]1C(=O)O)C(C)C)C(C)C [Val--Val--Val--Pro--Pro, Val-Val-Val-Pro-Pro] (H-VVVPP-OH)
